The first assay deals with recombinant rabies virus 1088 strain expressing Gaussia Luciferase (GLuc) (1088/GLuc). The format is cell-based. Particulars: read-out: Anti-rabies activity.
In the case of `Cc1ccc(CN2CC3CC4(C(=O)NCc5ccccc5)N=CC3C2C4CC(C)C)cc1` (stereo not drawn) [IIF-86], the IC50 was < 5 µM. The same measure, in the same setting: for `O=C(O)CCNC(=O)[C@]12NC[C@@H]3C[C@H]1CN(CCO)[C@H]2[C@@H]3Cc1cccc2ccccc12` (relative stereo) [IB-610] the value was 10 to 30 µM; for `O=C(NCCO)[C@@]12C[C@@H]3CN(CCc4ccccc4)[C@@H]([C@@H]3CN1)[C@H]2Cc1cccc2ccccc12` (relative stereo) [IF-612], 10 to 30 µM; for `CC(C)C[C@@H]1[C@@H]2[C@@H]3CN[C@@]1(C(=O)NCc1cccc4ccccc14)C[C@@H]3CN2CCO` (relative stereo) [IF-542], < 5 µM.

As to `N=C(N)NCCCNC(=O)[C@]12NC[C@@H]3C[C@H]1CN(CCc1ccccc1)[C@H]2[C@@H]3Cc1ccccc1` (relative stereo) [IB-344], the IC50 was 10 to 30 µM. On the same count and under the same terms, the result for `CC(C)CNC(=O)[C@]12N=C[C@@H]3C[C@H]1CN(Cc1ccccc1)[C@H]2[C@@H]3CC(C)C` (relative stereo) [IIB-4, (3S*,3aS*,6R*,7R*,7aS*)-1-benzyl-N,7-diisobutyl-1,2,3,6,7,7a-hexahydro-3aH-3,6-methanopyrrolo[3,2-b]pyridine-3a-carboxamide] reads 5 to 10 µM.

With `CC(C)CC1C2CNC3(C(=O)NCCc4ccccc4)C(C2)CN(CC(N)=O)C13` (stereo not drawn) [IB-86], the IC50 fell in the range of 10 to 30 µM. The same measure, in the same setting: the result for `CC(C)CCN1C[C@H]2C[C@]3(C(=O)NCCc4ccccc4)NC[C@H]2[C@H]1[C@H]3Cc1ccc(O)cc1` (relative stereo) [IF-545] reads 10 to 30 µM; that for `CC(C)CCNC(=O)[C@@]12C[C@@H]3CN(CC(C)C)[C@@H]([C@@H]3CN1)[C@H]2Cc1cccc2ccccc12` (relative stereo) [IF-674], 10 to 30 µM. The same measure, in the same setting: the result for `O=C(NCCO)[C@]12NC[C@@H]3C[C@H]1CN(Cc1cccc4ccccc14)[C@H]2[C@@H]3Cc1ccccc1` (relative stereo) [IB-588] reads < 5 µM; that for `CC(C)CNC(=O)[C@]12NC[C@@H]3C[C@H]1CN(Cc1cccc4ccccc14)[C@H]2[C@@H]3Cc1ccc(O)cc1` (relative stereo) [IB-763], 10 to 30 µM. Still for that read-out and setting: the result for `Cc1ccc(CN2CC3CC4CN(C(=O)OCC(C)C)C3(C(=O)NCc3ccccc3)C2C4CC(C)C)cc1` (stereo not drawn) [IB-886] reads 5 to 10 µM; that for `CN1CC2CC3C=NC2(C(=O)NCCc2cccc4ncccc24)C1C3Cc1ccccc1` (stereo not drawn) [IIB-330], < 5 µM. Regarding `CCCCCCNC(=O)[C@]12NC[C@@H]3C[C@H]1CN(CCCNC(=N)N)[C@H]2[C@@H]3CCc1ccccc1` (relative stereo) [IB-174], the IC50 is 10 to 30 µM.

As to `CC(C)CCNC(=O)[C@@]12C[C@@H]3CN(CCO)[C@@H]([C@@H]3CN1)[C@H]2Cc1cccc2ccccc12` (relative stereo) [IF-660], the IC50 lay within 10 to 30 µM. On the same count and under the same terms, the result for `NC(=O)CCNC(=O)[C@@]12C[C@@H]3CN(Cc4ccc(F)cc4)[C@@H]([C@@H]3CN1)[C@H]2Cc1cccc2ccccc12` (relative stereo) [IF-539] reads < 5 µM; that for `CC(C)CCC1C2CNC3(C(=O)NCc4cccc5ccccc45)C(C2)CN(CCC(=O)O)C13` (stereo not drawn) [IB-398], 10 to 30 µM; that for `N=C(N)NCCCN1CC2CC3(C(=O)NCCc4ccccc4)NCC2C1C3Cc1ccc(O)cc1` (stereo not drawn) [IF-359], 10 to 30 µM. With `O=C(NCc1ccc(F)cc1)[C@]12NC[C@@H]3C[C@H]1CN(CCO)[C@H]2[C@@H]3Cc1ccc(O)cc1` (relative stereo) [IB-549], the IC50 lay within 10 to 30 µM. Turning to `O=C(O)CCC1C2C3CNC1(C(=O)NCc1cccc4ccccc14)CC3CN2CC1CCCCC1` (stereo not drawn) [IF-419], the IC50 was 10 to 30 µM.

For the compound `CC(C)CCNC(=O)C12NCC3CC1CN(Cc1ccc(O)cc1)C2C3CC(C)C` (stereo not drawn) [IB-739], the IC50 lay within 10 to 30 µM. On the same count and under the same terms, the result for `CCCCCCNC(=O)[C@]12NC[C@@H]3C[C@H]1CN(Cc1ccccc1)[C@H]2[C@@H]3Cc1ccccc1` (relative stereo) [IB-562] reads 10 to 30 µM; that for `CC(C)CNC(=O)[C@@]12C[C@@H]3CN(Cc4ccc(F)cc4)[C@@H]([C@@H]3CN1)[C@H]2CC(C)C` (relative stereo) [IF-654], < 5 µM. On the same count and under the same terms, the result for `CC(C)CC1C2C3CNC1(C(=O)NCc1ccccc1)CC3CN2Cc1ccccc1` (stereo not drawn) [IF-7] reads 5 to 10 µM. On the same count and under the same terms, the result for `N=C(N)NCCCNC(=O)[C@]12NC[C@@H]3C[C@H]1CN(CC1CCCCC1)[C@H]2[C@@H]3CCc1ccccc1` (relative stereo) [IB-362] reads < 5 µM. In the case of `O=C(NCCc1ccccc1)[C@@]12C[C@@H]3CN(Cc4ccccc4)[C@@H]([C@@H]3CN1)[C@H]2Cc1ccc(O)cc1` (relative stereo) [IF-722], the IC50 is < 5 µM. On the same count and under the same terms, for `N=C(N)NCCC[C@@H]1[C@@H]2[C@@H]3CN[C@@]1(C(=O)NCc1cccc4ccccc14)C[C@@H]3CN2Cc1ccccc1` (relative stereo) [IF-284] the value was 10 to 30 µM; for `O=C(NCCc1ccccc1)[C@@]12C[C@@H]3CN(Cc4ccc(F)cc4)[C@@H]([C@@H]3CN1)[C@H]2Cc1ccccc1` (relative stereo) [IF-586], 10 to 30 µM.

`Cc1ccc(CN2CC3CC4C=NC3(C(=O)NCc3ccccc3)C2C4CC(C)C)cc1` (stereo not drawn) [IIB-86]: the IC50 was 5 to 10 µM.

In the case of `CC(C)CCN1C[C@H]2C[C@]3(C(=O)NCC(C)C)NC[C@H]2[C@H]1[C@H]3CCc1ccccc1` (relative stereo) [IF-635], the IC50 lay in the range of 10 to 30 µM. Regarding `CC(C)CCN1C[C@H]2C[C@]3(C(=O)NCC(C)C)NC[C@H]2[C@H]1[C@H]3Cc1cccc2ccccc12` (relative stereo) [IF-734], the IC50 is < 5 µM.

As to `CC(C)CC1C2CNC3(C(=O)NCCC(N)=O)C(C2)CN(CCc2ccccc2)C13` (stereo not drawn) [IB-708], the IC50 is < 5 µM. The same measure, in the same setting: for `CC(C)CNC(=O)[C@@]12C[C@@H]3CN(Cc4ccc(F)cc4)[C@@H]([C@@H]3CN1)[C@H]2CC(N)=O` (relative stereo) [IF-262] the value was < 5 µM; for `CC(C)CCC1C2CNC3(C(=O)NCc4ccccc4)C(C2)CN(CC(C)C)C13` (stereo not drawn) [IB-875], 10 to 30 µM. The same measure, in the same setting: the result for `CC(C)CNC(=O)[C@]12NC[C@@H]3C[C@H]1CN(Cc1ccc(F)cc1)[C@H]2[C@@H]3Cc1ccc(O)cc1` (relative stereo) [IB-631] reads 10 to 30 µM. The same measure, in the same setting: the result for `CC(C)C[C@@H]1[C@@H]2[C@@H]3CN[C@@]1(C(=O)NCc1cccc4ccccc14)C[C@@H]3CN2Cc1ccccc1` (relative stereo) [IF-837] reads 5 to 10 µM. On to `Cc1ccc(CN2CC3CC4CN(C(=O)OCc5ccccc5)C3(C(=O)NCc3ccccc3)C2C4CC(C)C)cc1` (stereo not drawn) [IB-887], for which the IC50 lay in the range of 5 to 10 µM.

In the case of `CC(C)CCC1C2CNC3(C(=O)NC(C)C)C(C2)CN(Cc2ccc(O)cc2)C13` (stereo not drawn) [IB-501], the IC50 was < 5 µM. Turning to `CC(C)CN1C[C@H]2C[C@]3(C(=O)NCCc4ccccc4)NC[C@H]2[C@H]1[C@H]3Cc1ccc(O)cc1` (relative stereo) [IF-567], the IC50 was in the range of 10 to 30 µM. Still for that read-out and setting: for `O=C(NCc1ccc(O)cc1)[C@@]12C[C@@H]3CN(CC4CCCCC4)[C@@H]([C@@H]3CN1)[C@H]2Cc1ccccc1` (relative stereo) [IF-477] the value was < 5 µM.

`O=C(NCc1ccccc1)[C@@]12C[C@@H]3CN(CC4CCCCC4)[C@@H]([C@@H]3CN1)[C@H]2Cc1ccc(O)cc1` (relative stereo) [IF-645]: the IC50 fell in the range of 10 to 30 µM. Take `O=C(NCCO)[C@]12NC[C@@H]3C[C@H]1CN(Cc1ccccc1)[C@H]2[C@@H]3Cc1cccc2ccccc12` (relative stereo) [IB-602]: the IC50 lay within 10 to 30 µM. Regarding `CC(C)CC[C@@H]1[C@@H]2[C@@H]3CN[C@@]1(C(=O)NCc1ccccc1)C[C@@H]3CN2CC1CCCCC1` (relative stereo) [IF-740], the IC50 fell in the range of 10 to 30 µM. On the same count and under the same terms, for `N=C(N)NCCCNC(=O)[C@@]12C[C@@H]3CN(Cc4cccc5ccccc45)[C@@H]([C@@H]3CN1)[C@H]2Cc1ccccc1` (relative stereo) [IF-386] the value was 10 to 30 µM. The same measure, in the same setting: for `CC(C)CCN1CC2CC3CNC2(C(=O)NCc2cccc4ccccc24)C1C3CO` (stereo not drawn) [IB-426] the value was < 5 µM; for `CCCCCCNC(=O)C12NCC3CC1CN(CCO)C2C3Cc1ccc(O)cc1` (stereo not drawn) [IB-478], 10 to 30 µM; for `CC(C)CNC(=O)[C@@]12C[C@@H]3CN(CC4CCCCC4)[C@@H]([C@@H]3CN1)[C@H]2CC(C)C` (relative stereo) [IF-742], 10 to 30 µM. Same read-out and setting: for `CC(C)CCN1CC2CC3(C(=O)NCc4ccc(O)cc4)NCC2C1C3CCC(=O)O` (stereo not drawn) [IF-445] the value was 10 to 30 µM. Consider `Cc1ccc(C[C@@H]2[C@@H]3[C@@H]4CN[C@@]2(C(=O)NCc2ccccc2)C[C@@H]4CN3CC(C)C)cc1` (relative stereo) [IF-14], for which the IC50 lay within 10 to 30 µM.

In the case of `CC(C)CCNC(=O)[C@@]12C[C@@H]3CN(Cc4ccccc4)[C@@H]([C@@H]3CN1)[C@H]2CC(C)C` (relative stereo) [IF-691], the IC50 lay in the range of 10 to 30 µM. For `CC(C)CC[C@@H]1[C@@H]2CN[C@@]3(C(=O)NCCO)[C@@H](C2)CN(Cc2ccc(F)cc2)[C@@H]13` (relative stereo) [IB-668], the IC50 was < 5 µM. Still for that read-out and setting: for `CC(C)CC[C@@H]1[C@@H]2CN[C@@]3(C(=O)NCCCNC(=N)N)[C@@H](C2)CN(Cc2ccc(F)cc2)[C@@H]13` (relative stereo) [IB-369] the value was 10 to 30 µM; for `CC(C)CN1C[C@H]2C[C@]3(C(=O)NCc4ccccc4)NC[C@H]2[C@H]1[C@H]3CC1CCCCC1` (relative stereo) [IF-38], 10 to 30 µM; for `CC(C)CNC(=O)C12CC3CN(CCC(=O)O)C(C3CN1)C2CCc1ccccc1` (stereo not drawn) [IF-454], 10 to 30 µM. On to `NC(=O)CN1C[C@H]2C[C@]3(C(=O)NCc4cccc5ccccc45)NC[C@H]2[C@H]1[C@H]3CCc1ccccc1` (relative stereo) [IF-85], for which the IC50 lay in the range of 10 to 30 µM. On the same count and under the same terms, for `CCCCCCNC(=O)[C@@]12C[C@@H]3CN(Cc4ccc(F)cc4)[C@@H]([C@@H]3CN1)[C@H]2CCCNC(=N)N` (relative stereo) [IF-298] the value was 10 to 30 µM; for `O=C(NCc1ccccc1)[C@]12NC[C@@H]3C[C@H]1CN(Cc1ccccc1)[C@H]2[C@@H]3Cc1cccc2ccccc12` (relative stereo) [IB-777], < 5 µM.

Staying with this assay, now noted: read-out: IC50.
`CC(C)CNC(=O)[C@]12N=C[C@@H]3C[C@H]1CN(Cc1ccccc1)[C@H]2[C@@H]3CC(C)C` (relative stereo) [IIB-4, (3S*,3aS*,6R*,7R*,7aS*)-1-benzyl-N,7-diisobutyl-1,2,3,6,7,7a-hexahydro-3aH-3,6-methanopyrrolo[3,2-b]pyridine-3a-carboxamide]: the IC50 stood at 8.9 µM. Consider `CC(C)CC1C2C3CNC1(C(=O)NCc1ccccc1)CC3CN2Cc1ccccc1` (stereo not drawn) [IF-7], for which the IC50 amounted to 8.5 µM.

In the case of `Cc1ccc(C[C@@H]2[C@@H]3[C@@H]4CN[C@@]2(C(=O)NCc2ccccc2)C[C@@H]4CN3CC(C)C)cc1` (relative stereo) [IF-14], the IC50 is 14.1 µM.

The values are drawn from patent EP4104902B1, “COMPOUNDS AND M[…] SAME” (priority 2020, dated 2021).
